These compounds were tested against Adenosine kinase (Homo sapiens) (UniProt P55263).
Chain of Adenosine kinase (Homo sapiens) (P55263 2-362 limits assumed): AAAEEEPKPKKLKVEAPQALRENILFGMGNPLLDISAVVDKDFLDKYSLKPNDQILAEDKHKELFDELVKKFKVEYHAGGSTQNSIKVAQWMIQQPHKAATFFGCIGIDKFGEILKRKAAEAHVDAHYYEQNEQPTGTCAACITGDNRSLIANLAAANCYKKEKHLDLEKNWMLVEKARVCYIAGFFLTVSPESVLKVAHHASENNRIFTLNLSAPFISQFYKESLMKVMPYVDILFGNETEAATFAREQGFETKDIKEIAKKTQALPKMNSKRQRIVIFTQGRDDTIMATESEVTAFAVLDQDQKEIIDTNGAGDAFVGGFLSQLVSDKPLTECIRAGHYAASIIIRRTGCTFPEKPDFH
Description: Inhibition of adenosine kinase

log(10'3/IC50) | Structure (SMILES)
5.05 | [N-]=[N+]=NC[C@H]1O[C@@H](n2cc(I)c3c(Cl)ncnc32)[C@H](O)[C@@H]1O
4.2 | [N-]=[N+]=NC[C@H]1O[C@@H](n2cc(Br)c3c(N)ncnc32)[C@H](O)[C@@H]1O
5.52 | C[C@H]1O[C@@H](n2cc(I)c3c(Cl)ncnc32)[C@H](O)[C@@H]1O
4 | C=C[C@H]1O[C@@H](n2cc(I)c3c(N)ncnc32)[C@H](O)[C@@H]1O
2.55 | C=CCSc1ncnc2c1c(I)cn2[C@@H]1O[C@H](C)[C@@H](O)[C@H]1O
1.89 | NC[C@H]1O[C@@H](n2ccc3c(N)ncnc32)[C@H](O)[C@@H]1O
4.35 | CSc1ncnc2c1c(I)cn2[C@@H]1O[C@H](C)[C@@H](O)[C@H]1O
3.3 | CC[C@H]1O[C@@H](n2cc(Br)c3c(N)ncnc32)[C@H](O)[C@@H]1O
7 | NC[C@H]1O[C@@H](n2cc(I)c3c(Cl)ncnc32)[C@H](O)[C@@H]1O
6.7 | NC[C@H]1O[C@@H](n2cc(Br)c3c(N)ncnc32)[C@H](O)[C@@H]1O
2.92 | CNc1ncnc2c1c(I)cn2[C@@H]1O[C@H](CO)[C@@H](O)[C@H]1O
4.15 | CSc1cn([C@@H]2O[C@H](C)[C@@H](O)[C@H]2O)c2ncnc(Cl)c12
2.19 | C[C@H]1O[C@@H](n2cc(I)c3c(S)ncnc32)[C@H](O)[C@@H]1O
2.7 | C[C@H]1O[C@@H](n2cc(I)c3c(SCc4ccc([N+](=O)[O-])cc4)ncnc32)[C@H](O)[C@@H]1O
2.87 | CSc1cn([C@@H]2O[C@H](C)[C@@H](O)[C@H]2O)c2ncnc(N)c12
3 | C[C@H]1O[C@@H](n2cc(I)c3c(SCc4ccccc4)ncnc32)[C@H](O)[C@@H]1O
4.46 | [N-]=[N+]=NC[C@H]1O[C@@H](n2cc(I)c3c(N)ncnc32)[C@H](O)[C@@H]1O
4.3 | C[C@H]1O[C@@H](n2cc(Br)c3c(Cl)ncnc32)[C@H](O)[C@@H]1O
3.27 | Cc1cn([C@@H]2O[C@H](C)[C@@H](O)[C@H]2O)c2ncnc(Cl)c12
3 | CCCCSc1ncnc2c1c(I)cn2[C@@H]1O[C@H](C)[C@@H](O)[C@H]1O
4.62 | OC[C@H]1O[C@@H](n2cc(I)c3c(Cl)ncnc32)[C@H](O)[C@@H]1O
4 | [N-]=[N+]=NC[C@H]1O[C@@H](n2cc(Br)c3c(Cl)ncnc32)[C@H](O)[C@@H]1O
6.22 | NC[C@H]1O[C@@H](n2cc(I)c3c(N)ncnc32)[C@H](O)[C@@H]1O
4.22 | CC[C@H]1O[C@@H](n2cc(I)c3c(N)ncnc32)[C@H](O)[C@@H]1O
2.92 | COC[C@H]1O[C@@H](n2cc(I)c3c(N)ncnc32)[C@H](O)[C@@H]1O

Structure (SMILES) | log(10'3/IC50)
C[C@H]1O[C@@H](n2cc(C#N)c3c(N)ncnc32)[C@H](O)[C@@H]1O | 3.51
N#Cc1cn([C@@H]2O[C@H](CO)[C@@H](O)[C@H]2O)c2ncnc(N)c12 | 3.51
Nc1ncnc2c1c(Cl)cn2[C@@H]1O[C@H](CO)[C@@H](O)[C@H]1O | 3.68
Nc1ncnc2c1c(Br)cn2[C@@H]1O[C@H](CO)[C@@H](O)[C@H]1O | 3.92

Reference: ChEMBL document CHEMBL1157179, “A CoMSIA study on the adenosine kinase inhibition of pyrrolo[2,3-d]pyrimidine nucleoside analogues” (Bioorg Med Chem, 2008)
